Consider 28 compounds from patent US20220073495A1 (priority 2020, published 2022).

pIC50: −log10 of the molar value. Like-named read-outs stand apart in the source and are kept apart here.

One data set can be described thus: in vitro. The settings on record: human.
For a further data set, the system named is A/WSN/33. As to the kind of experiment: microbe, parasite or virus in culture. The format is cell-based, influenza virus.
Data set [1] deals with A549 cells. The settings on record: human.
For data set [2], the system named is viral M mRNA. As to the kind of experiment: smRNA-FISH of M mRNA in WSN-infected cells. The note with it: 2.5 μM, WSN MOI 2 for 8 h. Format: cell-based, influenza virus (WSN).
The test system of data set [3] is A549 cells. Nature of the data set: MTT cytotoxicity assay. The note with it: 48 h, MTT, concentrations used for compound 2.
Data set [4] deals with viral M mRNA. Nature of the data set: High-throughput smRNA-FISH screen for viral M mRNA processing and nuclear export. The note with it: 2.5 μM, A/WSN/33. The format is cell-based, influenza A/WSN/33 virus.
[5] abbreviates: unidentified influenza virus, WSN, A549, 24 h, read-out: WSN IC50, A549 cells, A/WSN/33 MOI 0.01, 24 h post infection, NP-positive cells.
Where [6] appears, read: unidentified influenza virus, WSN, A549, 24 h, read-out: WSN IC90, A549 cells, A/WSN/33 MOI 0.01, 24 h post infection, NP-positive cells.
Setting [7] is: read-out: WSN IC50, A549 cells, A/WSN/33 MOI 0.01, 24 h post infection, NP-positive cells.
The mark [8] stands for this setting: read-out: WSN IC90, A549 cells, A/WSN/33 MOI 0.01, 24 h post infection, NP-positive cells.

With `Brc1ccc(CSc2nc3ccccc3[nH]2)cc1` [Compound 17], the CC50 in “in vitro” was above 50 µM. Further, the pIC50 in the data set with A/WSN/33 (setting [5]) is below 4.30. The IC90 in the data set on A/WSN/33 (setting [6]) is above 50 µM. Besides, the “24 h MTT CC10” value in the data set with A549 cells [1] worked out at 19.818 µM.
`Cc1ccc2[nH]c(SCC(=O)Nc3ccc(Br)cn3)nc2c1` [Compound 26]: the pIC50 with A/WSN/33 (setting [5]) is 4.59. Also, in the data set on A/WSN/33 (setting [6]), the IC90 was above 50 µM. Also, in the data set with A549 cells [1], the “24 h MTT CC10” value was 6.797 µM and the CC50 is 49.7 µM.
As for `COc1ccc(-n2c(SC(C)C(=O)Nc3ccc(C)cc3Cl)nc3ccccc32)cc1` (centres unmarked) [JMN3-003, reference compound], in the data set with viral M mRNA [2], the “nuclear export of viral M mRNA” value is recorded as “does not inhibit” and the “total M mRNA fluorescence intensity” value is listed as “decreased”.
With `O=C(C[S+]([O-])c1nc2ccccc2[nH]1)Nc1ccc(Br)cn1` (centres unmarked) [Compound 7], in “in vitro”, the CC50 was above 50 µM. Also, in the data set with A/WSN/33 (setting [5]), the pIC50 was 4.92. Moreover, the IC90 in the data set on A/WSN/33 (setting [6]) is above 50 µM. Moreover, the “24 h MTT CC10” value in the data set on A549 cells [1] amounted to 31.074 µM.
In “in vitro”, `CCn1c(SCC(=O)Nc2ccc(Br)cn2)nc2ccccc21` [Compound 18] returned a CC50 above 50 µM. Moreover, the pIC50 in the data set with A/WSN/33 (setting [5]) was 4.42. Besides, in the data set on A/WSN/33 (setting [6]), the IC90 was above 50 µM. In the data set on A549 cells [1], the “24 h MTT CC10” value amounted to 47.499 µM.
For `COc1ccc(C2C(CC(C)C(=O)Nc3ccc(Br)cn3)=Cc3ccccc32)cc1` (centres unmarked) [Compound 14], in the data set with A/WSN/33 (setting [5]), the pIC50 is below 4.30. Besides, the IC90 with A/WSN/33 (setting [6]) is above 50 µM. In the data set with A549 cells [1], the “24 h MTT CC10” value stood at 15.941 µM and the CC50 was above 50 µM.
`O=C(CSc1nc2ccccc2[nH]1)Nc1ccc(Br)cc1` [Compound 4] showed a CC50 in “in vitro” above 50 µM. Further, the pIC50 in the data set with A/WSN/33 (setting [5]) is below 4.30. The IC90 with A/WSN/33 (setting [6]) is above 50 µM. Also, the “24 h MTT CC10” value in the data set with A549 cells [1] was above 50 µM.
Turning to `Cc1ccc(NC(=O)CCc2nc3ccccc3o2)nc1` [Compound 15], the pIC50 in the data set with A/WSN/33 (setting [5]) is 4.51. Further, in the data set on A/WSN/33 (setting [6]), the IC90 was above 50 µM. Moreover, in the data set with A549 cells [1], the “24 h MTT CC10” value is above 50 µM and the CC50 is above 50 µM.
As to `O=C(CSc1nc2cc(F)ccc2[nH]1)Nc1ccc(Br)cn1` [Compound 27], the CC50 in “in vitro” is above 50 µM. The pIC50 with A/WSN/33 (setting [5]) is 4.79. For the same compound, the IC90 with A/WSN/33 (setting [6]) was 18.2 µM. Moreover, in the data set on A549 cells [1], the “24 h MTT CC10” value was 2.905 µM.
`O=C(CSc1nc2ccccc2[nH]1)NCc1ccccc1` [Compound 9] returned a CC50 in “in vitro” above 50 µM. Moreover, the pIC50 in the data set on A/WSN/33 (setting [5]) is below 4.30. For the same compound, in the data set with A/WSN/33 (setting [6]), the IC90 is above 50 µM. Further, the “24 h MTT CC10” value with A549 cells [1] is above 50 µM.
In the data set “in vitro”, `Cc1ccc(NC(=O)CSc2nc3ccccc3[nH]2)nc1` [Compound 20] displayed a CC50 above 50 µM. In addition, in the data set on A/WSN/33 (setting [7]), the pIC50 was below 4.30. Besides, in the data set on A/WSN/33 (setting [8]), the IC90 is above 50 µM. Moreover, the “24 h MTT CC10” value with A549 cells [1] turned out to be 7.855 µM.
In “in vitro”, `Cn1c(SCC(=O)Nc2ccc(Br)cn2)nc2ccccc21` [Compound 1] returned a CC50 above 50 µM. Also, in the data set on A/WSN/33 (setting [5]), the pIC50 is 5.72. The IC90 with A/WSN/33 (setting [6]) worked out at 12.1 µM. In addition, in the data set on A549 cells [1], the “24 h MTT CC10” value amounted to 1.417 µM.
Take `Cc1ccc(NC(=O)CCC2=Nc3ccccc3C2)nc1` [Compound 16]: the pIC50 in the data set with A/WSN/33 (setting [5]) was 4.51. Moreover, the IC90 in the data set on A/WSN/33 (setting [6]) is above 50 µM. Also, in the data set with A549 cells [1], the “24 h MTT CC10” value was 7.382 µM and the CC50 was above 50 µM.
Turning to `C=CCn1c(SCC(=O)Nc2ccc(Br)cn2)nc2ccccc21` [Compound 19], the CC50 in the data set “in vitro” was above 50 µM. Besides, in the data set with A/WSN/33 (setting [5]), the pIC50 was below 4.30. The IC90 with A/WSN/33 (setting [6]) was above 50 µM. In the data set on A549 cells [1], the “24 h MTT CC10” value was determined as 18.984 µM.
`O=C(CS(=O)(=O)c1nc2ccccc2[nH]1)Nc1ccc(Br)cn1` [Compound 6] returned a CC50 in the data set “in vitro” above 50 µM. Moreover, the pIC50 in the data set with A/WSN/33 (setting [5]) is 4.65. Moreover, the IC90 in the data set on A/WSN/33 (setting [6]) is above 50 µM. Also, the “24 h MTT CC10” value with A549 cells [1] stood at 23.361 µM.
`COc1ccc(NC(=O)CSc2nc3ccccc3[nH]2)nc1` [Compound 21]: the CC50 in the data set “in vitro” is above 50 µM. Besides, in the data set on A/WSN/33 (setting [5]), the pIC50 is 4.76. For the same compound, the IC90 in the data set on A/WSN/33 (setting [6]) amounted to 45.4 µM. Moreover, the “24 h MTT CC10” value with A549 cells [1] was determined as 4.69 µM.
In the case of `Cc1ccc(NC(=O)CSc2nc3ccccc3[nH]2)nc1` [Compound 24], the pIC50 with A/WSN/33 (setting [7]) was 5.06. In addition, the IC90 with A/WSN/33 (setting [8]) came out at 24.5 µM. In the data set with A549 cells [1], the “24 h MTT CC10” value stood at 5.552 µM and the CC50 was above 50 µM.
`O=C(CSc1nc2ccccc2[nH]1)Nc1ccc(F)cn1` [Compound 22] returned a CC50 in “in vitro” above 50 µM. In addition, the pIC50 in the data set on A/WSN/33 (setting [5]) is 4.36. For the same compound, the IC90 with A/WSN/33 (setting [6]) is above 50 µM. In addition, in the data set on A549 cells [1], the “24 h MTT CC10” value came out at 31.688 µM.
In “in vitro”, `O=C(CSc1nc2ccccc2[nH]1)Nc1ccccn1` [Compound 11] came in with a CC50 above 50 µM. Besides, the pIC50 in the data set on A/WSN/33 (setting [5]) is below 4.30. The IC90 in the data set with A/WSN/33 (setting [6]) was above 50 µM. The “24 h MTT CC10” value in the data set on A549 cells [1] is above 50 µM.
Take ivermectin [reference compound]: in the data set with A549 cells [3], the “cytotoxicity (cell viability)” value is given as “positive control for cytotoxicity”.
In turn, `Cc1cccc2[nH]c(SCC(=O)Nc3ccc(Br)cn3)nc12` [Compound 3] registered a CC50 in the data set “in vitro” above 50 µM. Moreover, the pIC50 in the data set on A/WSN/33 (setting [5]) is 5.31. The IC90 in the data set with A/WSN/33 (setting [6]) is 10 µM. For the same compound, in the data set with A549 cells [1], the “24 h MTT CC10” value came to 0.683 µM.
On the same counts, the results for `NC(=O)CSc1nc2ccccc2[nH]1` [Compound 5] are above 50 µM, below 4.30, above 50 µM and above 50 µM.
In the same order, the values of `Brc1ccc(CSc2nc3ccccc3[nH]2)nc1` [Compound 23] are above 50 µM, below 4.30, above 50 µM and 37.461 µM.
Take `OC[C@H]1O[C@@H](n2cnc3cc(Cl)c(Cl)cc32)[C@H](O)[C@@H]1O` [DRB, 5,6-dichloro-1-β-D-ribofuranosylbenzimidazole]: the “viral M mRNA nuclear retention” value with viral M mRNA [4] is given as “positive control for viral M mRNA nuclear retention”.
In the data set “in vitro”, `O=C(CSc1nc2ccccc2[nH]1)NC1CCCCC1` [Compound 10] showed a CC50 above 50 µM. Moreover, in the data set with A/WSN/33 (setting [5]), the pIC50 was below 4.30. Also, in the data set with A/WSN/33 (setting [6]), the IC90 is above 50 µM. In addition, the “24 h MTT CC10” value with A549 cells [1] was above 50 µM.
In the case of `O=C(CSc1nc2ccccc2[nH]1)NCc1ccccn1` [Compound 8], the CC50 in the data set “in vitro” was above 50 µM. For the same compound, the pIC50 with A/WSN/33 (setting [5]) was below 4.30. In the data set with A/WSN/33 (setting [6]), the IC90 is above 50 µM. Further, the “24 h MTT CC10” value in the data set on A549 cells [1] was above 50 µM.
As to `COc1ccc2[nH]c(SCC(=O)Nc3ccc(Br)cn3)nc2c1` [Compound 28], the CC50 in “in vitro” was above 50 µM. In addition, the pIC50 in the data set on A/WSN/33 (setting [5]) was 4.33. For the same compound, the IC90 in the data set with A/WSN/33 (setting [6]) was 50 µM. In addition, in the data set on A549 cells [1], the “24 h MTT CC10” value was found to be 7.52 µM.
On the same counts, the results for `CC(Sc1nc2ccccc2[nH]1)C(=O)Nc1ccc(Br)cn1` (centres unmarked) [Compound 12] are above 50 µM, below 4.30, above 50 µM and above 50 µM.
